Data: patent US5776944A, “7-(4-aminomethyl-3-methyloxyiminopyrroplidin-1-yl)-1-cyclopropyl-6-flu oro-4-oxo-1,4-dihydro-1,8-naphthyridine-3-carboxylic acid and the process for the preparation thereof” (LG Chemical Ltd., priority 1994, dated 1998)
Converted amounts (≈) assume the structure as drawn. Read-outs that look alike come from different tables or passages of the source.

Columns and labels:
[1] = test system: Pseudomonas aeruginosa 1912E; assay: In vitro antibacterial activity (MIC, agar dilution), Biological Example 1; type: cell-based; settings: 18 h; Pseudomonas aeruginosa 1912E, Table 25; read-out: Minimum Inhibitory Concentration
[2] = test system: Citrobacter diversus 2046E; assay: as above; type: cell-based; settings: Citrobacter koseri, 18 h, Table 25, read-out: Minimum Inhibitory Concentration
[3] = test system: Klebsiella aerogenes 1082E; assay: as above; type: cell-based; settings: 18 h, Table 25, read-out: Minimum Inhibitory Concentration
[4] = test system: Klebsiella aerogenes 1976E; assay: as above; type: cell-based; settings: 18 h, Table 25, read-out: Minimum Inhibitory Concentration
[5] = test system: Staphylococcus aureus 241; assay: as above; type: cell-based; settings: 18 h; Staphylococcus aureus 241, Table 25; read-out: Minimum Inhibitory Concentration
[6] = test system: Micrococcus luteus 9341; assay: as above; type: cell-based; settings: 18 h; Micrococcus luteus 9341, Table 25; read-out: Minimum Inhibitory Concentration
[7] = test system: Staphylococcus epidermidis 178; assay: as above; type: cell-based; settings: 18 h; Staphylococcus epidermidis 178, Table 25; read-out: Minimum Inhibitory Concentration
[8] = test system: Staphylococcus aureus 77; assay: as above; type: cell-based; settings: 18 h; Staphylococcus aureus 77, Table 25; read-out: Minimum Inhibitory Concentration
[9] = test system: Staphylococcus aureus giorgio; assay: as above; type: cell-based; settings: 18 h, Table 25, read-out: Minimum Inhibitory Concentration
[10] = test system: Escherichia coli TEM5 3739E; assay: microbe, parasite or virus in culture; type: cell-based; settings: TEM53739E, 18 h, read-out: Minimum Inhibitory Concentration
[11] = test system: Enterobacter cloacae 1194E; assay: microbe, parasite or virus in culture; type: cell-based; settings: 18 h, read-out: Minimum Inhibitory Concentration
[12] = test system: Staphylococcus epidermidis 887E; assay: In vitro antibacterial activity (MIC, agar dilution), Biological Example 1; type: cell-based; settings: 18 h, Table 25, read-out: Minimum Inhibitory Concentration
[13] = test system: Escherichia coli 851E; assay: as above; type: cell-based; settings: 18 h, Table 25, read-out: Minimum Inhibitory Concentration
[14] = test system: Staphylococcus aureus 6538p; assay: as above; type: cell-based; settings: 18 h, Table 25, read-out: Minimum Inhibitory Concentration
[15] = test system: Bacillus subtilis 6633; assay: as above; type: cell-based; settings: 18 h; Bacillus subtilis 6633, Table 25; read-out: Minimum Inhibitory Concentration
[16] = test system: Escherichia coli TEM3 3455E; assay: microbe, parasite or virus in culture; type: cell-based; settings: TEM33455E, 18 h, read-out: Minimum Inhibitory Concentration
[17] = Acute oral toxicity test; settings: in vivo, ICR male mouse, 7 days
Protocol: To determine the acute oral toxicity of the compounds prepared in Examples 1 and 34, the test solution containing the compounds in various concentrations were orally administered to ICR male mouse in an amount of 10 ml per kg of body weight. For 7 days after administration, the lethality and the conditions of test mouse were observed, from which LD50 value (mg/kg), was calculated.

[18] = test system: Enterobacter cloacae P99; assay: microbe, parasite or virus in culture; type: cell-based; settings: P99, 18 h, read-out: Minimum Inhibitory Concentration
[19] = test system: Streptococcus faecalis 29212; assay: In vitro antibacterial activity (MIC, agar dilution), Biological Example 1; type: cell-based; settings: Enterococcus faecalis, 18 h; Streptococcus faecalis 29212, Table 25; read-out: Minimum Inhibitory Concentration
[20] = test system: Escherichia coli 10536; assay: as above; type: cell-based; settings: 18 h; Escherichia coli 10536, Table 25; read-out: Minimum Inhibitory Concentration
[21] = test system: Pseudomonas aeruginosa 10145; assay: as above; type: cell-based; settings: 18 h; Pseudomonas aeruginosa 10145, Table 25; read-out: Minimum Inhibitory Concentration
[22] = test system: Salmonella typimurium 14028; assay: as above; type: cell-based; settings: 18 h; Salmonella typimurium 14028, Table 25; read-out: Minimum Inhibitory Concentration
[23] = test system: Escherichia coli 3190Y; assay: as above; type: cell-based; settings: 18 h, Table 25, read-out: Minimum Inhibitory Concentration
[24] = test system: Acinetobacter calcoaceticus 15473; assay: as above; type: cell-based; settings: 18 h; Acinetobacter calcoaceticus 15473, Table 25; read-out: Minimum Inhibitory Concentration
[25] = test system: Escherichia coli TEM9 2639E; assay: microbe, parasite or virus in culture; type: cell-based; settings: TEM92639E, 18 h, read-out: Minimum Inhibitory Concentration
[26] = test system: Staphylococcus aureus giorgio; assay: In vitro antibacterial activity (MIC, agar medium dilution), Biological Example 4; type: cell-based; settings: 18 h, Table 31, read-out: Minimum Inhibitory Concentration: MIC
[27] = test system: Staphylococcus aureus 241; assay: as above; type: cell-based; settings: Staphylococcus aureus, 241, 18 h, Staphylococcus aureus 241, Table 31; read-out: Minimum Inhibitory Concentration: MIC
[28] = test system: Proteus vulgaris 6059; assay: as above; type: cell-based; settings: 18 h; Proteus vulgaris 6059, Table 31; read-out: Minimum Inhibitory Concentration: MIC
[29] = test system: test strains; assay: In vitro antibacterial activity, overall finding, Biological Example 4; type: cell-based; settings: Tables 31 and 32
Protocol: (§1) In order to determine the antibacterial activitiers of the E- and Z-isomner of the compound 180 which were separated in Example 203, and of 7- (4-aminomethyl-3-methyloxylminopyrrolidin-1-yl)-1-cyclopropyl-6-fluoro-4-oxo-1,4-dihydro-1,8-naphthyridine-3-carboxylic acid methanesulfonate prepared in Example 204, in vitro antibacterial activities of them were measured using agar medium dilution method. The results were as described in the following Tables 31 and 32.

[30] = test system: Enterobacter cloacae P99; assay: microbe, parasite or virus in culture; type: cell-based; settings: P99, 18 h, read-out: Minimum Inhibitory Concentration: MIC
[31] = test system: Citrobacter diversus 2046E; assay: In vitro antibacterial activity (MIC, agar medium dilution), Biological Example 4; type: cell-based; settings: Citrobacter koseri, 18 h, Table 31, read-out: Minimum Inhibitory Concentration: MIC
[32] = test system: Pseudomonas aeruginosa 6065Y; assay: as above; type: cell-based; settings: 18 h, Table 31, read-out: Minimum Inhibitory Concentration: MIC
Protocol: as §1

[33] = test system: Seratis marsecence 1826E; assay: as above; type: cell-based; settings: 18 h, Table 31, read-out: Minimum Inhibitory Concentration: MIC
Protocol: as §1

[34] = test system: Escherichia coli TEM5 3739E; assay: as above; type: cell-based; settings: TEM53739E, 18 h, read-out: Minimum Inhibitory Concentration: MIC
[35] = test system: Escherichia coli TEM3 3455E; assay: as above; type: cell-based; settings: TEM33455E, 18 h, read-out: Minimum Inhibitory Concentration: MIC, Escherichia coli TEM3 3455E, Table 31
[36] = test system: Salmonella thypimurium 14028; assay: as above; type: cell-based; settings: 18 h; Salmonella thypimurium 14028, Table 31; read-out: Minimum Inhibitory Concentration: MIC
[37] = test system: Klebsiella aerogenes 1082E; assay: as above; type: cell-based; settings: 18 h, Table 31, read-out: Minimum Inhibitory Concentration: MIC
[38] = test system: Klebsiella aerogenes 1976E; assay: as above; type: cell-based; settings: 18 h, Table 31, read-out: Minimum Inhibitory Concentration: MIC
[39] = test system: Pseudomonas aeruginosa 1912E; assay: as above; type: cell-based; settings: 18 h, Table 31, read-out: Minimum Inhibitory Concentration: MIC
[40] = test system: Staphylococcus aureus 77; assay: as above; type: cell-based; settings: 18 h; Staphylococcus aureus 77, Table 31; read-out: Minimum Inhibitory Concentration: MIC
[41] = test system: Escherichia coli TEM9 2639E; assay: as above; type: cell-based; settings: TEM92639E, 18 h, read-out: Minimum Inhibitory Concentration: MIC
[42] = test system: Escherichia coli 3190Y; assay: as above; type: cell-based; settings: 18 h, Table 31, read-out: Minimum Inhibitory Concentration: MIC
[43] = test system: Escherichia coli 10536; assay: as above; type: cell-based; settings: Escherichia coli, 10536, 18 h, Escherichia coli 10536, Table 31; read-out: Minimum Inhibitory Concentration: MIC
[44] = test system: Staphylococcus aureus 6538p; assay: as above; type: cell-based; settings: 18 h, Table 31, read-out: Minimum Inhibitory Concentration: MIC
[45] = test system: Enterobacter cloacae 1194E; assay: microbe, parasite or virus in culture; type: cell-based; settings: 18 h, read-out: Minimum Inhibitory Concentration: MIC
[46] = test system: Streptococcus faecalis 29212; assay: In vitro antibacterial activity (MIC, agar medium dilution), Biological Example 4; type: cell-based; settings: Enterococcus faecalis, 29212, 18 h, Streptococcus faecalis 29212, Table 31; read-out: Minimum Inhibitory Concentration: MIC
[47] = test system: Micrococcus luteus 9341; assay: as above; type: cell-based; settings: 18 h; Micrococcus luteus 9341, Table 31; read-out: Minimum Inhibitory Concentration: MIC
[48] = test system: Bacillus subtilis 6633; assay: as above; type: cell-based; settings: 18 h; Bacillus subtilis 6633, Table 31; read-out: Minimum Inhibitory Concentration: MIC
[49] = test system: Staphylococcus epidermidis 887E; assay: as above; type: cell-based; settings: 18 h, Staphylococcus epidermidis 887E, Table 31, read-out: Minimum Inhibitory Concentration: MIC
[50] = test system: Escherichia coli 851E; assay: as above; type: cell-based; settings: 18 h, Table 31, read-out: Minimum Inhibitory Concentration: MIC
[51] = test system: Pseudomonas aeruginosa 10145; assay: as above; type: cell-based; settings: Pseudomonas aeruginosa, 10145, 18 h, Pseudomonas aeruginosa 10145, Table 31; read-out: Minimum Inhibitory Concentration: MIC
[52] = test system: Staphylococcus epidermidis 178; assay: as above; type: cell-based; settings: 18 h; Staphylococcus epidermidis 178, Table 31; read-out: Minimum Inhibitory Concentration: MIC
[53] = test system: Acinetobacter calcoaceticus 15473; assay: as above; type: cell-based; settings: 18 h; Acinetobacter calcoaceticus 15473, Table 31; read-out: Minimum Inhibitory Concentration: MIC

NCC1CN(c2c(F)cc3c(=O)c(C(=O)O)cn(C4CC4)c3c2Cl)CC1=NOCc1ccccc1 (centres unmarked) [Example 34, 7-(4-aminomethyl-3-benzyoxyimino-pyrrolidin-1-yl)-8-chloro-1-cyclopropyl-6-fluoro-1,4-dihydro-4-oxo-guinoline-3-carboxylic acid]
MIC [1]: 0.5 µg/mL (≈ 1 µM) | MIC [2]: 0.25 µg/mL (≈ 0.501 µM) | MIC [3]: 0.031 µg/mL (≈ 0.0621 µM) | MIC [4]: 0.5 µg/mL (≈ 1 µM) | MIC [5]: 4 µg/mL (≈ 8.02 µM) | MIC [6]: 0.13 µg/mL (≈ 0.261 µM) | MIC [7]: 2 µg/mL (≈ 4.01 µM) | MIC [8]: ≤ 0.008 µg/mL | MIC [9]: ≤ 0.008 µg/mL | MIC [10]: 0.5 µg/mL (≈ 1 µM) | MIC [11]: 0.25 µg/mL (≈ 0.501 µM) | MIC [12]: ≤ 0.008 µg/mL | MIC [13]: 0.13 µg/mL (≈ 0.261 µM) | MIC [14]: ≤ 0.008 µg/mL | MIC [15]: ≤ 0.008 µg/mL | MIC [16]: 1 µg/mL (≈ 2 µM) | LD50 at 168 h [17]: > 3000 mg/kg | MIC [18]: 0.063 µg/mL (≈ 0.126 µM) | MIC [19]: 0.13 µg/mL (≈ 0.261 µM) | MIC [20]: 0.016 µg/mL (≈ 0.0321 µM) | MIC [21]: 2 µg/mL (≈ 4.01 µM) | MIC [22]: 0.063 µg/mL (≈ 0.126 µM) | MIC [23]: ≤ 0.008 µg/mL | MIC [24]: 0.031 µg/mL (≈ 0.0621 µM) | MIC [25]: 0.13 µg/mL (≈ 0.261 µM)

CO/N=C1\CN(c2nc3c(cc2F)c(=O)c(C(=O)O)cn3C2CC2)CC1CN (stereo not drawn) [Z-isomer]
MIC [26]: ≤ 0.008 µg/mL | MIC [27]: 4 µg/mL (≈ 10.3 µM) | MIC [28]: 0.25 µg/mL (≈ 0.642 µM) | antibacterial activity [29]: superior antibacterial activity to the E-isomer | MIC [30]: ≤ 0.008 µg/mL | MIC [31]: 0.031 µg/mL (≈ 0.0796 µM) | MIC [32]: 8 µg/mL (≈ 20.5 µM) | MIC [33]: 0.25 µg/mL (≈ 0.642 µM) | MIC [34]: 0.13 µg/mL (≈ 0.334 µM) | MIC [35]: 0.13 µg/mL (≈ 0.334 µM) | MIC [36]: 0.031 µg/mL (≈ 0.0796 µM) | MIC [37]: 0.031 µg/mL (≈ 0.0796 µM) | MIC [38]: 0.063 µg/mL (≈ 0.162 µM) | MIC [39]: 0.5 µg/mL (≈ 1.28 µM) | MIC [40]: 0.031 µg/mL (≈ 0.0796 µM) | MIC [41]: 0.031 µg/mL (≈ 0.0796 µM) | MIC [42]: ≤ 0.008 µg/mL | MIC [43]: ≤ 0.008 µg/mL | MIC [44]: ≤ 0.008 µg/mL | MIC [45]: 0.031 µg/mL (≈ 0.0796 µM) | MIC [46]: 0.063 µg/mL (≈ 0.162 µM) | MIC [47]: 0.13 µg/mL (≈ 0.334 µM) | MIC [48]: ≤ 0.008 µg/mL | MIC [49]: ≤ 0.008 µg/mL | MIC [50]: 0.016 µg/mL (≈ 0.0411 µM) | MIC [51]: 0.5 µg/mL (≈ 1.28 µM) | MIC [52]: 4 µg/mL (≈ 10.3 µM) | MIC [53]: 0.063 µg/mL (≈ 0.162 µM)
